Laboratory results from PubChem BioAssay (NCI).
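In this assay, cells in 96-well plates receive the compound at five concentrations for 48 hours. Endpoints are linearly interpolated between the surrounding concentrations. GI50: concentration for 50% inhibition of growth. TGI: concentration producing complete growth inhibition.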

Experiments:
Assay in all cases: inhibition of tumour cell growth, NCI panel, 48 h
SW-620 colon = test system: SW-620 colon
U251 CNS = test system: U251 CNS
SN12C renal = test system: SN12C renal
NCI-H460 lung = test system: NCI-H460 lung
IGROV1 ovarian = test system: IGROV1 ovarian
HCT-116 colon = test system: HCT-116 colon
SF-295 CNS = test system: SF-295 CNS
RXF 393 renal = test system: RXF 393 renal
M14 melanoma = test system: M14 melanoma
DU-145 prostate = test system: DU-145 prostate

Row | SMILES | TGI (SW-620 colon) [µM] | TGI (U251 CNS) [µM] | TGI (SN12C renal) [µM] | TGI (NCI-H460 lung) [µM] | TGI (IGROV1 ovarian) [µM] | TGI (HCT-116 colon) [µM] | TGI (SF-295 CNS) [µM] | TGI (RXF 393 renal) [µM] | TGI (M14 melanoma) [µM] | GI50 (U251 CNS) [µM] | GI50 (SN12C renal) [µM] | GI50 (IGROV1 ovarian) [µM] | GI50 (HCT-116 colon) [µM] | GI50 (SF-295 CNS) [µM] | GI50 (DU-145 prostate) [µM] | TGI (DU-145 prostate) [µM] | GI50 (M14 melanoma) [µM] | GI50 (RXF 393 renal) [µM] | GI50 (SW-620 colon) [µM] | GI50 (NCI-H460 lung) [µM]
1 | COC(=O)C1=Cc2cc(OC)c(OC)c(OC)c2[C@H](c2cc(OC)c(OC)c(OC)c2)C1C(=O)OC (stereo not given in full) | > 100 | > 100 | > 100 | > 100 | > 100 | > 100 | > 100 | > 100 | > 100 | – | – | – | – | – | – | – | – | – | – | –
2 | CCOC(=O)C1SC(=Nc2cccc(Cl)c2C)N=C1C (stereo not given) | 57.5 | 30.3 | 35.6 | > 100 | > 100 | 58.1 | 39.7 | > 100 | – | – | – | – | – | – | – | – | – | – | – | –
3 | CCN(CC)CC(C)(C)C(=O)/C=C/c1cccc(/C=C/C(=O)C(C)(C)CN(CC)CC)c1 | 0.419 | 0.686 | 1.04 | 2.31 | 2.23 | 1.24 | 3.28 | 1.49 | 2.82 | – | – | – | – | – | – | – | – | – | – | –
4 | OC(c1cc(-c2cccc(Cl)c2)nc2ccccc12)C1CCCCN1 (stereo not given) | – | 3.05 | 5.19 | – | 3.21 | 3.38 | 3.22 | – | 3.74 | 1.66 | 2.17 | 1.69 | 1.75 | 1.59 | 1.76 | 3.15 | 1.91 | – | – | –
5 | O=C1/C(=C\c2ccc(F)cc2)CN(C(=O)c2ccccc2)C/C1=C\c1ccc(F)cc1 | – | 3.76 | 12.1 | – | 10.7 | 1.71 | – | 4.85 | 4.65 | 1.65 | 3.02 | 3.33 | 0.428 | – | – | – | 2.05 | 1.99 | – | –
6 | C=C=C(C(=O)OC)S(=O)c1ccccc1[N+](=O)[O-] (stereo not given) | > 100 | > 100 | > 100 | > 100 | > 100 | > 100 | > 100 | > 100 | > 100 | – | – | – | – | – | – | – | – | – | – | –
7 | CN(C)c1ccc(/C=C/C(=O)[O-])cc1.CN(C)c1ccc(/C=C/C(=O)[O-])cc1.[Cu+2] | > 100 | > 100 | > 100 | > 100 | > 100 | > 100 | > 100 | > 100 | > 100 | 37.2 | – | – | – | – | – | – | – | > 100 | – | –
8 | Cc1cc([N+](=O)[O-])ccc1Sc1c2ccccc2nc2cc(Cl)ccc12 | 93.5 | 80.7 | 92.7 | > 100 | > 100 | 63.8 | > 100 | > 100 | > 100 | – | – | – | – | – | – | – | – | – | – | –
9 | Nc1c(-c2cn(Cc3ccccc3)c3ccccc23)[n+]([O-])c2ccccc2[n+]1[O-] | > 100 | > 100 | > 100 | > 100 | > 100 | – | 88.7 | – | 74.3 | – | – | – | – | – | – | – | – | – | – | –
10 | O=[N+]([O-])c1ccc(C2CC(c3ccccc3Cl)=Nc3ccccc3S2)cc1 (stereo not given) | 4.78 | 12.2 | 17.4 | 45.1 | 29.6 | 4.92 | 38.5 | 12.6 | 29.4 | – | – | – | – | – | – | – | – | – | – | –
11 | COc1ccc(C(CCC(C)=O)C(=O)O)cc1OC (stereo not given) | > 100 | > 100 | > 100 | > 100 | > 100 | > 100 | > 100 | > 100 | – | – | – | – | – | – | – | – | – | – | – | –
12 | C=CCC(N[C@@H](CO)c1ccccc1)c1cn(Cc2ccccc2Cl)c(=O)n(Cc2ccccc2Cl)c1=O (stereo not given in full) | > 100 | > 100 | > 100 | > 100 | – | > 100 | > 100 | > 100 | > 100 | > 100 | > 100 | – | 87.3 | > 100 | > 100 | > 100 | > 100 | > 100 | > 100 | > 100
13 | CC[C@H]1CN2CCc3cc(OC)c(OC)cc3C2C[C@@H]1CC1NCCc2cc(OC)c(OC)cc21 (stereo not given in full) | 0.238 | – | 0.289 | 0.112 | 0.407 | 0.0491 | – | 0.131 | 0.0487 | – | – | – | – | – | – | 0.105 | – | – | – | –
14 | C=CC(=O)NCCSCCCOC1(C(=O)O)CC(O)C(NC(C)=O)C(C(O)C(O)CO)O1 (stereo not given) | > 100 | > 100 | > 100 | > 100 | > 100 | > 100 | > 100 | > 100 | > 100 | – | – | – | – | – | – | – | – | – | – | –
15 | CC1=Nc2ccccc2NC(c2ccoc2)C1 (stereo not given) | > 100 | > 100 | > 100 | > 100 | > 100 | > 100 | > 100 | > 100 | > 100 | – | – | – | – | – | – | – | – | – | – | –
16 | CCOC(=O)C1=C(C)N=c2s/c(=C\c3ccccc3O)c(=O)n2C1c1ccc(OC)c2ccccc12 (stereo not given) | > 100 | 6.58 | 63.6 | 39.5 | 75 | 12.1 | 30 | 17.3 | – | 2.35 | 17.6 | 21.4 | 3.26 | 13.3 | 8.3 | 32 | – | 4.3 | 16.6 | 8.92
17 | c1ccc([CH2][Sn]([CH2]c2ccccc2)([O]c2cccc3cccnc23)[O]c2cccc3cccnc23)cc1 | 0.376 | 0.463 | 2.1 | 0.446 | 1.23 | 1.19 | 1.92 | – | 1.75 | 0.218 | 0.603 | 0.403 | 0.211 | 0.579 | – | – | 0.46 | – | 0.188 | 0.207
18 | Cc1cc([N+](=O)[O-])ccc1NC(=O)C(=O)C(C(=O)c1ccccc1-c1ccccc1)C1OC(=O)c2ccccc21 (stereo not given) | 36.6 | 26 | 37.4 | 38.2 | 67.8 | 29.9 | 50.9 | 19.5 | 27.4 | – | – | – | – | – | – | – | – | – | – | –
19 | C[C@]12CCc3nc(Nc4cccc(O)c4)sc3C1=CC[C@@H]1[C@@H]2CC[C@]2(C)/C(=N\NC(N)=S)CC[C@@H]12 | 3.8 | 2.96 | 5.31 | 4.05 | 6.25 | 2.69 | 3.11 | 2.19 | 5 | 1.15 | 1.98 | 2.31 | 1.34 | 1.2 | – | – | 1.96 | 0.574 | 1.91 | 1.96
